Data as given in ChEMBL document CHEMBL4038298, “Ester- and amide-containing multiQACs: Exploring multicationic soft antimicrobial agents” (Bioorg Med Chem Lett, 2017).

What was measured:
Staphylococcus aureus [1] = experiment: Antibacterial activity against methicillin-susceptible Staphylococcus aureus SH1000 incubated for 72 hrs; format: functional; conditions: SH1000, 72 h
Enterococcus faecalis = experiment: Antibacterial activity against Enterococcus faecalis OG1RF incubated for 72 hrs; format: functional
Escherichia coli = experiment: Antibacterial activity against Escherichia coli MC4100 incubated for 72 hrs; format: functional; conditions: str. K-12 substr. MC4100, 72 h
Pseudomonas aeruginosa = experiment: Antibacterial activity against Pseudomonas aeruginosa PAO1 incubated for 72 hrs; format: functional; conditions: PAO1, 72 h
Staphylococcus aureus [2] = experiment: Antibacterial activity against community acquired methicillin-resistant Staphylococcus aureus USA300-0114 incubated for 72 hrs; format: functional; conditions: USA300-0114, 72 h
Staphylococcus aureus [3] = experiment: Antibacterial activity against hospital-acquired methicillin-resistant Staphylococcus aureus ATCC 33592 incubated for 72 hrs; format: functional; conditions: ATCC 33592, 72 h
[4] = Ratio of MIC for community acquired methicillin-resistant Staphylococcus aureus USA300-0114 to HC20 for sheep RBC assessed as compound concentration required for <20% hemolysis
[5] = Stability of the compound in pure water by LCMS method; format: physicochemical
[6] = Stability in buffer solution at pH 7 after 16 hrs by LCMS analysis; format: physicochemical; conditions: read-out: Stability
[7] = Stability in buffer solution assessed as decomposition at pH 10 by LCMS analysis; format: physicochemical
[8] = Stability in buffer solution at pH 10 after 16 hrs by LCMS analysis; format: physicochemical; conditions: read-out: Stability
[9] = Stability of the compound in pure water up to 72 hrs by LCMS analysis; format: physicochemical; conditions: read-out: Stability
[10] = Solubility of the compound in buffer solution at pH 10 by LCMS analysis; format: physicochemical
[11] = Stability in buffer solution assessed as decomposition at pH 4 by LCMS analysis; format: physicochemical
[12] = Half life at pH 7 buffer solution by LCMS method
[13] = Ratio of MIC for Enterococcus faecalis OG1RF to HC20 for sheep RBC assessed as compound concentration required for <20% hemolysis

| SMILES | MIC (Staphylococcus aureus [1]) | MIC (Enterococcus faecalis) | MIC (Escherichia coli) | MIC (Pseudomonas aeruginosa) | MIC (Staphylococcus aureus [2]) | MIC (Staphylococcus aureus [3]) | Ratio [4] | Stability [5] | remaining at 16 h [6] | Stability [7] | remaining at 16 h [8] | remaining at 72 h [9] | solubility [10] | Stability [11] | T1/2 [12] | Ratio [13] |
| --- | --- | --- | --- | --- | --- | --- | --- | --- | --- | --- | --- | --- | --- | --- | --- | --- |
| CCCCCCCCCCCCCCOC(=O)C[N+](C)(C)CCC[N+](C)(CCC[N+](C)(C)CC(=O)OCCCCCCCCCCCCCC)CC(=O)OCCCCCCCCCCCCCC.[Br-].[Br-].[Br-] | 63 µM | 32 µM | 63 µM | 250 µM | 16 µM | 32 µM | 4 | Stable |  |  |  |  |  |  |  |  |
| CCCCCCCCCCNC(=O)C[N+](C)(C)CCCN(CCC[N+](C)(C)CC(=O)NCCCCCCCCCC)CCC[N+](C)(C)CC(=O)NCCCCCCCCCC.[Br-].[Br-].[Br-] | 1 µM | 1 µM | 1 µM | 8 µM | 0.5 µM | 1 µM |  |  | > 80% | Unstable | > 80% | ≥ 90% | Insoluble |  |  |  |
| CCCCCCCCCCNC(=O)C[N+](C)(C)CCN1CC[N+](C)(CC(=O)NCCCCCCCCCC)CC1.[Br-].[Br-] | 0.5 µM | 0.5 µM | 1 µM | 2 µM | 0.5 µM | 0.5 µM |  |  | > 80% | Unstable | > 80% | ≥ 90% | Insoluble |  |  |  |
| CCCCCCCCCCOC(=O)C[N+](C)(C)CCCN(CCC[N+](C)(C)CC(=O)OCCCCCCCCCC)CCC[N+](C)(C)CC(=O)OCCCCCCCCCC.[Br-].[Br-].[Br-] | 2 µM | 8 µM | 8 µM | 16 µM | 4 µM | 4 µM |  |  |  | Unstable |  | ≥ 90% |  | Unstable | 3 h |  |
| CCCCCCCCCCCCCCOC(=O)C[N+](C)(C)CCCN(CCC[N+](C)(C)CC(=O)OCCCCCCCCCCCCCC)CCC[N+](C)(C)CC(=O)OCCCCCCCCCCCCCC.[Br-].[Br-].[Br-] | 125 µM | 16 µM | 32 µM | 250 µM | 16 µM | 32 µM | 4 | Stable |  |  |  |  |  |  |  | 4 |
| CCCCCCCCCCOC(=O)C[N+](C)(C)CCN1CC[N+](C)(CC(=O)OCCCCCCCCCC)CC1.[Br-].[Br-] | 2 µM | 4 µM | 2 µM | 16 µM | 2 µM | 2 µM |  |  |  | Unstable |  | ≥ 90% |  | Unstable | 3 h |  |
